Patent US10800757B2, “Inhibitors of TRPC6” (Boehringer Ingelheim International GmbH, priority 2017, dated 2020)

Molecular target: TRPC6 (Homo sapiens (Human), UniProt Q9Y210)
Assay: High throughput screening assay: fluorescent calcium (Fluo4/AM) assay of TRPC6 channel activation by GSK1702934A in HEK293/TREx cells
Assay type: cell-based
Details: HEK293/TREx cells stably transfected with TRPC6; agonist GSK1702934A; 7 concentrations 20 μM to 0.027 μM, triplicate
Excerpt: This screening assay measures TRPC6 (transient receptor potential cation channel, subfamily C, member 6) ion channel activation via addition either of the commercially available DAG ligand analogue OAG (1-oleoyl-2-acetyl-sn-glycerol) or of the TRPC6 agonist 1-[1-(4,5,6,7,8-pentahydrocyclohepta[2,1-d]thiophen-2-ylcarbonyl)-4-piperidyl]-3-hydrobenzimidazol-2-one (GSK1702934A). The assay utilizes a FLIPR fluorescent calcium sensor 4-(6-Acetoxymethoxy-2,7-difluoro-3-oxo-9-xanthenyl)-4′-methyl-2,2′-(ethylenedioxy)dianiline-N,N,N′,N′-tetraacetic acid tetrakis(acetoxymethyl) ester (Fluo4/AM) […]. Changes (increases) in intracellular membrane calcium concentration potential as measured by the fluorescent signal increase during membrane depolarization provide a measurement of channel activity.
The commercially available HEK293/TREx line (Invitrogen) was stably transfected with a TRPC6 construct and screened by conventional calcium imaging to find clones with TRPC6 expression following stimulation with 1 μg/ml tetracycline. These cells were maintained in the growth medium recommended by the manufacturer supplemented with 100 μg/ml hygromycin to promote retention of the TRPC6 construct. After growing to near confluency, cells were plated at a density of ^˜35,000 cells/well in 384 well CellBind plates (Corning) in the presence of 1 μg/ml tetracycline, and allowed to grow for 20-30 hrs. A nearly confluent monolayer resulted. Growth media was removed from the wells and cells were then loaded with […] Fluo4/AM diluted in Ringer's Solution (6.5 g NaCl, 0.42 g KCl, 0.25 g CaCl2) and 0.2 g of sodium bicarbonate; pH 7.4) supplemented with 1% Pluronic F-127 to a final concentration of 0.5 μM and incubated for 60 min, at room temperature. Dye solution was then removed from the cells by inverting plates with a sharp flick, and replaced with 25 μl Ringer's. Following ^˜0.5 hour for recovery from loading, cells were assayed using the Hamamatsu FDSS 6000 system, which permitted illumination at 485 nm. Frames were acquired at a rate of 0.2 Hz. During the assay, the plates were continuously vortexed, with pipette mixing of wells following addition of each reagent. For the screening assay, 26 μl of a diluted compound stock (at 50 μM) was added to each well for 2 minutes following the collection of a short (4 frame) baseline. 13 μl of agonist solution consisting of 125 nM GSK1702934A diluted in high-Ca2+Ringer solution (containing 90 mm Ca2+) was then added to each well, achieving a final concentration of 20 mm Ca2+ and 10 μM test compound. Data was collected for ^˜3 minutes following addition of high Ca2+Ringer. The fluorescent ratio for each well was divided by the initial fluorescent intensity for that well and the overall response was determined by averaging the fluorescent ratio of the last 4 frames acquired during the experiment excepting the final frame. Negative and Positive controls were included on each plate. Negative controls wells consisted of HEK293/TREx TRPC6 cells exposed to assay buffer and agonist solution, but no test compound. Positive control consisted of wells consisted of HEK293/TREx TRPC6 cells exposed to 25 μM 3-[(2-chlorophenoxy)methyl]phenyl piperidyl ketone (Chembridge) diluted in Ringer's solution and agonist solution. These controls defined zero percent and 100 percent block respectively, and intensity of each well was normalized to these values.
Compounds were tested in triplicate at all concentrations. Standard software was used to fit IC50 curves.

TRPC6, sequence (Q9Y210 whole entry, species assumed): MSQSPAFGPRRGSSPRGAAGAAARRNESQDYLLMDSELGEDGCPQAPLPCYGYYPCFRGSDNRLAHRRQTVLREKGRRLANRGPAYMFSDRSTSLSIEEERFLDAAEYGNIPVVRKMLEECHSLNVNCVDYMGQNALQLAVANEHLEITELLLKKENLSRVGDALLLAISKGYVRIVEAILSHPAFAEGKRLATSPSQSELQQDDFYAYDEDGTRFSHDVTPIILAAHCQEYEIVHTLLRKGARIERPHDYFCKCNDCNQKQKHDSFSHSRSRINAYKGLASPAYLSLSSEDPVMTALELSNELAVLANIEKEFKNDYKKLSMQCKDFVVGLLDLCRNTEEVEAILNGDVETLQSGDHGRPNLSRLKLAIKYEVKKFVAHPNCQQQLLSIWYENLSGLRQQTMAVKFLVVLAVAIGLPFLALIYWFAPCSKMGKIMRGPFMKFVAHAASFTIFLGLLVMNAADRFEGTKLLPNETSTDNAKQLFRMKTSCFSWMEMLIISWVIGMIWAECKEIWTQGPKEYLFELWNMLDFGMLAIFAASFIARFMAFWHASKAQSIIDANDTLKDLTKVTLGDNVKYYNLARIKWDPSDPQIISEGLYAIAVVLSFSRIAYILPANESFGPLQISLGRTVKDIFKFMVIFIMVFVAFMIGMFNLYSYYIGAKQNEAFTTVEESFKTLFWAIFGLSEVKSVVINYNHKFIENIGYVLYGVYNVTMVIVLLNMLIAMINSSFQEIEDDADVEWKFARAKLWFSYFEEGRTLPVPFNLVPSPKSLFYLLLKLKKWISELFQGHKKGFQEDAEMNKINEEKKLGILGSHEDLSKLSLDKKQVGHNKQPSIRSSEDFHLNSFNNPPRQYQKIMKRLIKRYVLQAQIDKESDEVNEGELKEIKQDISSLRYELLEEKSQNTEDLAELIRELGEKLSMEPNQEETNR

| IC50 | SMILES |
| --- | --- |
| 640 nM | COc1cc(C(=O)N2CCC(c3cnc(N)cc3OC)CC2)ncc1O[C@@H](C)C1CC1 [Compound 70, (6-Amino-4-methoxy-3′,4′,5′,6′-tetrahydro-2′H-[3,4′]bipyridinyl-1′-yl)-[5-((S)-1-cyclopropyl-ethoxy)-4-methoxy-pyridin-2-yl]-methanone] |
| 180 nM | COc1ccc(Oc2cnc(C(=O)N3CCN(c4ccc(N)nc4)C[C@@H]3CO)cc2OC)cc1 [Compound 82, [(R)-4-(6-Amino-pyridin-3-yl)-2-hydroxymethyl-piperazin-1-yl]-[4-methoxy-5-(4-methoxy-phenoxy)-pyridin-2-yl]-methanone] |
| 290 nM | COc1cc(C(=O)N2CCC(c3nnc(N)cc3OC)CC2)ncc1Oc1ccc(C(F)(F)F)cc1 [Compound 56, [4-(6-Amino-4-methoxy-pyridazin-3-yl)-piperidin-1-yl]-[4-methoxy-5-(4-trifluoromethyl-phenoxy)-pyridin-2-yl]-methanone] |
| 630 nM | COc1cc(C(=O)N2CCN(c3cnc(N)cc3OC)C[C@@H]2CO)ncc1Oc1ccccc1 [Compound 69, [(R)-4-(6-Amino-4-methoxy-pyridin-3-yl)-2-hydroxymethyl-piperazin-1-yl]-(4-methoxy-5-phenoxy-pyridin-2-yl)-methanone] |
| 1500 nM | COc1cc(C(=O)N2CCC(c3ccc(N)nn3)CC2)ncc1OCC1(C)CC1 [Compound 75, [4-(6-Amino-pyridazin-3-yl)-piperidin-1-yl]-[4-methoxy-5-(1-methyl-cyclopropylmethoxy)-pyridin-2-yl]-methanone] |
| 300 nM | COc1cc(C(=O)N2CCC(c3cnc(N)cc3OC3CC3)CC2)ncc1Oc1ccccc1 [Compound 84, (6-Amino-4-cyclopropoxy-3′,4′,5′,6′-tetrahydro-2′H-[3,4′]bipyridinyl-1′-yl)-[5-(phenoxy)-4-methoxy-pyridin-2-yl]-methanone] |
| 1300 nM | COc1cc(C(=O)N2CCC(c3ccc(N)nn3)CC2)ncc1OCCc1ccccc1 [Compound 73, [4-(6-Amino-pyridazin-3-yl)-piperidin-1-yl]-(4-methoxy-5-phenethyloxy-pyridin-2-yl)-methanone] |
| 670 nM | COc1cc(C(=O)N2CCN(c3cnc(N)cc3OC)C[C@H]2CO)ncc1Oc1ccc(F)cc1 [Compound 63, [(S)-4-(6-Amino-4-methoxy-pyridin-3-yl)-2-hydroxymethyl-piperazin-1-yl]-[5-(4-fluoro-phenoxy)-4-methoxy-pyridin-2-yl]-methanone] |
| 820 nM | COc1cc(C(=O)N2CCC(c3cnc(N)cc3OC)CC2)ncc1OCC1(CF)CC1 [Compound 64, (6-Amino-4-methoxy-3′,4′,5′,6′-tetrahydro-2′H-[3,4′]bipyridinyl-1′-yl)-[5-(1-fluoromethyl-cyclopropylmethoxy)-4-methoxy-pyridin-2-yl]-methanone] |

Continued, compound first:

| SMILES | IC50 |
| --- | --- |
| COc1cc(C(=O)N2CCN(c3cnc(N)cc3OC)CC2)ncc1Oc1ccccc1 [Compound 5, [4-(6-Amino-4-methoxy-pyridin-3-yl)-piperazin-1-yl]-(4-methoxy-5-phenoxy-pyridin-2-yl)-methanone] | 27 nM |
| COc1ccc(Oc2cnc(C(=O)N3CCC(c4ccc(N)nn4)CC3)cc2OC)cc1 [Compound 44, [4-(6-Amino-pyridazin-3-yl)-piperidin-1-yl]-[4-methoxy-5-(4-methoxy-phenoxy)-pyridin-2-yl]-methanone] | 140 nM |
| COc1cc(C(=O)N2CCC(c3cnc(N)cc3C)CC2)ncc1Oc1ccccc1 [Compound 10, (6-Amino-4-methyl-3′,4′,5′,6′-tetrahydro-2′H-[3,4′]bipyridinyl-1′-yl)-(4-methoxy-5-phenoxy-pyridin-2-yl)-methanone] | 27 nM |
| COc1cc(C(=O)N2CCC(c3cnc(N)cc3OC)CC2)ncc1OCC1(C)CC1 [Compound 26, (6-Amino-4-methoxy-3′,4′,5′,6′-tetrahydro-2′H-[3,4′]bipyridinyl-1′-yl)-[4-methoxy-5-(1-methyl-cyclopropylmethoxy)-pyridin-2-yl]-methanone] | 71 nM |
| COc1cc(C(=O)N2CCC(c3cnc(N)cc3OC)CC2)ncc1OCC1CC1 [Compound 37, 5-{1-[5-(Cyclopropylmethoxy)-4-methoxypyridine-2-carbonyl]piperidin-4-yl}-4-methoxypyridin-2-amine] | 160 nM |
| COc1cc(C(=O)N2CCC(c3cnc(N)cc3OC)CC2)ncc1OCC(C)C [Compound 39, 4-Methoxy-5-{1-[4-methoxy-5-(2-methylpropoxy)pyridine-2-carbonyl]piperidin-4-yl}-pyridin-2-amine trifluoroacetic acid] | 170 nM |
| COc1cc(C(=O)N2CCC(c3ccc(N)nc3)CC2)ncc1Oc1ccc(F)cc1 [Compound 14, (6-Amino-3′,4′,5′,6′-tetrahydro-2′H-[3,4′]bipyridinyl-1′-yl)-[5-(4-fluoro-phenoxy)-4-methoxy-pyridin-2-yl]-methanone] | 27 nM |
| COc1cc(C(=O)N2C3COCC2CC(c2cnc(N)cc2OC)C3)ncc1Oc1ccccc1 (stereo not drawn) [Compound 68, [7-(6-Amino-4-methoxy-pyridin-3-yl)-3-oxa-9-aza-bicyclo[3.3.1]non-9-yl]-(4-methoxy-5-phenoxy-pyridin-2-yl)-methanone] | 630 nM |
| COc1cc(C(=O)N2CCN(c3ccc(N)nc3)CC2)ncc1Oc1ccccc1 [Compound 15, [4-(6-Amino-pyridin-3-yl)-piperazin-1-yl]-(4-methoxy-5-phenoxy-pyridin-2-yl)-methanone] | 27 nM |
| COc1cc(C(=O)N2CCC(c3nnc(N)cc3OC)CC2)ncc1Oc1ccccc1 [Compound 47, 5-Methoxy-6-[1-(4-methoxy-5-phenoxypyridine-2-carbonyl)piperidin-4-yl]pyridazin-3-amine] | 220 nM |
| COc1cc(C(=O)N2C3CCC2CN(c2cnc(N)cc2OC)C3)ncc1Oc1ccccc1 [Compound 51, [3-(6-Amino-4-methoxy-pyridin-3-yl)-3,8-diaza-bicyclo[3.2.1]oct-8-yl]-(4-methoxy-5-phenoxy-pyridin-2-yl)-methanone] | 290 nM |
| COc1cc(C(=O)N2CCN(c3cnc(N)cc3OC)CC23CC3)ncc1Oc1ccccc1 [Compound 8, [7-(6-Amino-4-methoxy-pyridin-3-yl)-4,7-diaza-spiro[2.5]oct-4-yl]-(4-methoxy-5-phenoxy-pyridin-2-yl)-methanone] | 27 nM |
| COc1cc(C(=O)N2CCC(c3ccc(N)nn3)CC2)ncc1Oc1ccc(F)cc1 [Compound 17, 6-{1-[5-(4-Fluorophenoxy)-4-methoxypyridine-2-carbonyl]piperidin-4-yl}pyridazin-3-amine] | 29 nM |
| COc1ccc(Oc2cnc(C(=O)N3CCN(c4ccc(N)nc4)CC3)cc2OC)cc1 [Compound 12, [4-(6-Amino-pyridin-3-yl)-piperazin-1-yl]-[4-methoxy-5-(4-methoxy-phenoxy)-pyridin-2-yl]-methanone] | 27 nM |
| COc1cc(C(=O)N2CCC(c3nnc(N)cc3C)CC2)ncc1Oc1ccc(F)cc1 [Compound 29, 6-{-[5-(4-Fluorophenoxy)-4-methoxypyridine-2-carbonyl]piperidin-4-yl}-5-methylpyridazin-3-amine trifluoroacetic acid] | 110 nM |
| COc1cc(C(=O)N2CCC(c3nnc(N)cc3OC)CC2)ncc1Oc1ccc(F)cc1 [Compound 49, [4-(6-Amino-4-methoxy-pyridazin-3-yl)-piperidin-1-yl]-[5-(4-fluoro-phenoxy)-4-methoxy-pyridin-2-yl]-methanone] | 250 nM |
| COc1cc(C(=O)N2CCN(c3ccc(N)nc3)C[C@@H]2CO)ncc1Oc1ccc(F)cc1 [Compound 20, [(R)-4-(6-Amino-pyridin-3-yl)-2-hydroxymethyl-piperazin-1-yl]-[5-(4-fluoro-phenoxy)-4-methoxy-pyridin-2-yl]-methanone] | 42 nM |
| COc1cc(C(=O)N2CCC(c3ccc(N)nn3)CC2)ncc1OCC(C)C [Compound 36, [4-(6-Amino-pyridazin-3-yl)-piperidin-1-yl]-(5-isobutoxy-4-methoxy-pyridin-2-yl)-methanone] | 97 nM |
